Measured values: the supplement of paper PMC11061612

Legend:
Test in all cases: combination Emax (second highest fraction inhibited in the dose matrix, 72 h); higher = more inhibition; extreme values may be limits of the assay
GCIY (Gastric Carcinoma) = test system: GCIY (Gastric Carcinoma)
Method in brief: (§1)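 Cell lines grown in DMEM/F12 or RPMI with 10% FBS were plated in 1536-well plates and held 24 hours at 37°C, 5% CO2 before 72 hours of exposure to two-drug dose matrices, with DMSO typically at 0.2%. CellTiter-Glo 2.0 luminescence gave viability, which was converted to inhibition. Vehicle wells were set to 0 and blank wells to 1. Combination Emax is the second-highest inhibition in the matrix, and Bliss excess is the observed combination effect minus the expected EA + EB − EA·EB, where EA and EB are the single-agent effects.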

[1] = test system: C2BBe1 (Colorectal Carcinoma)
Method in brief: as §1

[2] = test system: COR-L105 (Lung Adenocarcinoma)
Method in brief: as §1

SK-MEL-24 (Melanoma) = test system: SK-MEL-24 (Melanoma)
Method in brief: as §1

[3] = test system: NCI-H1975 (Lung Adenocarcinoma)
Method in brief: as §1

[4] = test system: BT-474 (Breast Carcinoma)
Method in brief: as §1

[5] = test system: HT-1197 (Bladder Carcinoma)
Method in brief: as §1

[6] = test system: SUP-HD1 (Hodgkin's Lymphoma)
Method in brief: as §1

[7] = test system: BC-1 (B-Cell Non-Hodgkin's Lymphoma)
Method in brief: as §1

[8] = test system: NCI-H1944 (Lung Adenocarcinoma)
Method in brief: as §1

[9] = test system: TK (B-Cell Non-Hodgkin's Lymphoma)
Method in brief: as §1

[10] = test system: JURL-MK1 (Chronic Myelogenous Leukemia)
Method in brief: as §1

[11] = test system: NCI-H1435 (Non-Small Cell Lung Carcinoma)
Method in brief: as §1

DK-MG (Glioblastoma) = test system: DK-MG (Glioblastoma)
Method in brief: as §1

[12] = test system: GRANTA-519 (B-Cell Non-Hodgkin's Lymphoma)
Method in brief: as §1

SK-N-DZ (Neuroblastoma) = test system: SK-N-DZ (Neuroblastoma)
Method in brief: as §1

[13] = test system: RPMI-8402 (T-Lymphoblastic Leukemia)
Method in brief: as §1

[14] = test system: TOV-21G (Ovarian Carcinoma)
Method in brief: as §1

HT-144 (Melanoma) = test system: HT-144 (Melanoma)
Method in brief: as §1

[15] = test system: SCC90 (Head and Neck Carcinoma)
Method in brief: as §1

| SMILES | combination Emax (GCIY (Gastric Carcinoma)) | combination Emax [1] | combination Emax [2] | combination Emax (SK-MEL-24 (Melanoma)) | combination Emax [3] | combination Emax [4] | combination Emax [5] | combination Emax [6] | combination Emax [7] | combination Emax [8] | combination Emax [9] | combination Emax [10] | combination Emax [11] | combination Emax (DK-MG (Glioblastoma)) | combination Emax [12] | combination Emax (SK-N-DZ (Neuroblastoma)) | combination Emax [13] | combination Emax [14] | combination Emax (HT-144 (Melanoma)) | combination Emax [15] |
| --- | --- | --- | --- | --- | --- | --- | --- | --- | --- | --- | --- | --- | --- | --- | --- | --- | --- | --- | --- | --- |
| CN(CCO)CC[C@H](CSc1ccccc1)Nc1ccc(S(=O)(=O)NC(=O)c2ccc(N3CCC([C@@H](O)c4ccccc4-c4ccc(Cl)cc4)CC3)cc2)cc1S(=O)(=O)C(F)(F)F [AZD4320] + CN(C)CCCOc1ccc(-c2ccc3ncc4c(c3c2)n(C2CCOCC2)c(=O)n4C)cn1 [AZD0156] (first compound max 1 µM, 7x7, partner max 1 µM) | 0.554 | 0.188 | 0.261 | 0.252 | 0.256 | 0.211 | 0.142 | 0.961 | 0.17 | 0.322 | 0.998 | 0.825 | 0.651 | 0.192 | 0.934 | 0.697 | 0.903 | 0.209 | 0.219 | 0.496 |
| CN(CCO)CC[C@H](CSc1ccccc1)Nc1ccc(S(=O)(=O)NC(=O)c2ccc(N3CCC([C@@H](O)c4ccccc4-c4ccc(Cl)cc4)CC3)cc2)cc1S(=O)(=O)C(F)(F)F [AZD4320] + C[C@@H]1COCCN1C2=NC(=NC(=C2)C3(CC3)[S@](=N)(=O)C)C4=C5C=CNC5=NC=C4 [AZD6738] (first compound max 1 µM, 7x7, partner max 10 µM) | 0.918 | 0.494 | 0.54 | 0.556 | 0.481 | 0.259 | 0.443 | 0.98 | 0.901 | 0.993 | 1 | 1 | 0.852 | 0.359 | 0.999 | 1 | 1 | 0.824 | 0.765 | 0.535 |
| CN(CCO)CC[C@H](CSc1ccccc1)Nc1ccc(S(=O)(=O)NC(=O)c2ccc(N3CCC([C@@H](O)c4ccccc4-c4ccc(Cl)cc4)CC3)cc2)cc1S(=O)(=O)C(F)(F)F [AZD4320] + C[C@@H](Nc1cc(F)cc(F)c1)c1cc(C(=O)N(C)C)cc2c(=O)cc(N3CCOCC3)oc12 [AZD8186] (first compound max 1 µM, 7x7, partner max 3 µM) | 0.719 | 0.461 | 0.387 | 0.772 | 0.421 | 0.428 | 0.319 | 0.96 | 0.461 | 0.767 | 0.999 | 0.871 | 0.966 | 0.557 | 1 | 0.868 | 0.994 | 0.37 | 0.455 | 0.557 |
| CN(CCO)CC[C@H](CSc1ccccc1)Nc1ccc(S(=O)(=O)NC(=O)c2ccc(N3CCC([C@@H](O)c4ccccc4-c4ccc(Cl)cc4)CC3)cc2)cc1S(=O)(=O)C(F)(F)F [AZD4320] + Cn1cnc2c(F)c(Nc3ccc(Br)cc3Cl)c(C(=O)NOCCO)cc21 [Selumetinib] (first compound max 1 µM, 7x7, partner max 3 µM) | 0.658 | 0.587 | 0.543 | 0.761 | 0.417 | 0.282 | 0.41 | 0.983 | 0.443 | 0.702 | 0.987 | 0.999 | 0.819 | 0.336 | 1 | 0.827 | 0.999 | 0.503 | 0.834 | 0.881 |
| COc1nnc2ccc(N3CCC(c4ccc(OCCN5CCN(C)C(=O)[C@H]5C)cc4)CC3)nn12 [AZD5153] + C=CCn1c(=O)c2cnc(Nc3ccc(N4CCN(C)CC4)cc3)nc2n1-c1cccc(C(C)(C)O)n1 [AZD1775] (first compound max 1 µM, partner max 1 µM) | 0.605 | 0.547 | 0.474 | 0.604 | 0.728 | 0.526 | 0.724 | 0.783 | 0.979 | 0.84 | 0.97 | 0.998 | 0.24 | 0.689 | 0.874 | 0.987 | 1 | 0.891 | 0.651 | 0.714 |
| COc1nnc2ccc(N3CCC(c4ccc(OCCN5CCN(C)C(=O)[C@H]5C)cc4)CC3)nn12 [AZD5153] + CC1(C)CCC(CN2CCN(c3ccc(C(=O)NS(=O)(=O)c4ccc(NCC5CCOCC5)c([N+](=O)[O-])c4)c(Oc4cnc5[nH]ccc5c4)c3)CC2)=C(c2ccc(Cl)cc2)C1 [Venetoclax] (first compound max 1 µM, 7x7, partner max 1 µM) | 0.505 | 0.378 | 0.507 | 0.474 | 0.667 | 0.353 | 0.656 | 0.955 | 0.935 | 0.566 | 0.994 | 0.873 | 0.169 | 0.539 | 0.69 | 0.694 | 0.791 | 0.623 | 0.417 | 0.533 |
| COc1nnc2ccc(N3CCC(c4ccc(OCCN5CCN(C)C(=O)[C@H]5C)cc4)CC3)nn12 [AZD5153] + CCN(CCO)CCCOc1ccc2c(Nc3cc(CC(=O)Nc4cccc(F)c4)[nH]n3)ncnc2c1 [AZD2811] (first compound max 1 µM, 7x7, partner max 1 µM) | 0.63 | 0.558 | 0.426 | 0.528 | 0.781 | 0.368 | 0.742 | 0.704 | 0.943 | 0.711 | 0.371 | 0.898 | 0.339 | 0.614 | 0.56 | 0.8 | 0.999 | 0.749 | 0.48 | 0.452 |
| COc1nnc2ccc(N3CCC(c4ccc(OCCN5CCN(C)C(=O)[C@H]5C)cc4)CC3)nn12 [AZD5153] + C[C@@H]1COCCN1C2=NC(=NC(=C2)C3(CC3)[S@](=N)(=O)C)C4=C5C=CNC5=NC=C4 [AZD6738] (first compound max 1 µM, 7x7, partner max 10 µM) | 0.794 | 0.579 | 0.477 | 0.636 | 0.737 | 0.483 | 0.724 | 0.823 | 0.989 | 0.88 | 0.968 | 0.998 | 0.3 | 0.624 | 0.906 | 0.979 | 1 | 0.891 | 0.713 | 0.416 |
| COc1nnc2ccc(N3CCC(c4ccc(OCCN5CCN(C)C(=O)[C@H]5C)cc4)CC3)nn12 [AZD5153] + Cc1c2c(nn1C)CSCc1cc(n(C)n1)CSc1cc(c3ccccc3c1)OCCCc1c(C(=O)O)n(C)c3c-2c(Cl)ccc13 [AZD5991] (first compound max 1 µM, 7x7, partner max 1 µM) | 0.538 | 0.452 | 0.568 | 0.772 | 0.724 | 0.912 | 0.966 | 0.946 | 1 | 0.594 | 0.677 | 0.927 | 0.296 | 0.633 | 0.314 | 0.751 | 1 | 0.744 | 0.978 | 0.9 |
| COc1nnc2ccc(N3CCC(c4ccc(OCCN5CCN(C)C(=O)[C@H]5C)cc4)CC3)nn12 [AZD5153] + Cn1cnc2c(F)c(Nc3ccc(Br)cc3Cl)c(C(=O)NOCCO)cc21 [Selumetinib] (first compound max 1 µM, 7x7, partner max 10 µM) | 0.598 | 0.701 | 0.621 | 0.857 | 0.72 | 0.385 | 0.806 | 0.752 | 0.945 | 0.717 | 0.232 | 1 | 0.233 | 0.652 | 0.206 | 0.703 | 0.774 | 0.775 | 0.864 | 0.916 |
| Cc1c2c(nn1C)CSCc1cc(n(C)n1)CSc1cc(c3ccccc3c1)OCCCc1c(C(=O)O)n(C)c3c-2c(Cl)ccc13 [AZD5991] + C1CN(CCC1(C(=O)N[C@@H](CCO)C2=CC=C(C=C2)Cl)N)C3=NC=NC4=C3C=CN4 [Capivasertib] (first compound max 1 µM, 7x7, partner max 3 µM) | 0.36 | 0.251 | 0.248 | 0.439 | 0.623 | 0.746 | 0.419 | 0.777 | 1 | 0.344 | 0.17 | 0.729 | 0.179 | 0.86 | 0.0859 | 0.182 | 0.929 | 0.634 | 1 | 0.966 |
| Cc1c2c(nn1C)CSCc1cc(n(C)n1)CSc1cc(c3ccccc3c1)OCCCc1c(C(=O)O)n(C)c3c-2c(Cl)ccc13 [AZD5991] + C=CCn1c(=O)c2cnc(Nc3ccc(N4CCN(C)CC4)cc3)nc2n1-c1cccc(C(C)(C)O)n1 [AZD1775] (first compound max 1 µM, partner max 1 µM) | 0.545 | 0.341 | 0.454 | 0.478 | 0.677 | 0.469 | 0.593 | 0.82 | 1 | 0.737 | 0.927 | 0.999 | 0.276 | 0.821 | 0.863 | 0.948 | 1 | 0.732 | 0.969 | 0.952 |
